Measured values: PMC3777193, “Diaryl- and triaryl-pyrrole derivatives: inhibitors of the MDM2–p53 and MDMX–p53 protein–protein interactions” (Medchemcomm, 2013)
Like-named read-outs stand apart in the source and are kept apart here.

How the values were obtained:
[1] = target: MDM2–p53 (Homo sapiens, UniProt Q00987); experiment: MDM2–p53 ELISA protein–protein binding assay; details: for fold loss of potency against MDM2–p53: N-alkyl malonamides compared with 10c
[2] = target: T1, MDMX–p53 (Homo sapiens, UniProt O15151); experiment: MDMX–p53 ELISA binding assay
T1 construct: host or cells: in vitro coupled T7 transcription and rabbit reticulocyte lysate translation
T1 sequence (O15151 1-490): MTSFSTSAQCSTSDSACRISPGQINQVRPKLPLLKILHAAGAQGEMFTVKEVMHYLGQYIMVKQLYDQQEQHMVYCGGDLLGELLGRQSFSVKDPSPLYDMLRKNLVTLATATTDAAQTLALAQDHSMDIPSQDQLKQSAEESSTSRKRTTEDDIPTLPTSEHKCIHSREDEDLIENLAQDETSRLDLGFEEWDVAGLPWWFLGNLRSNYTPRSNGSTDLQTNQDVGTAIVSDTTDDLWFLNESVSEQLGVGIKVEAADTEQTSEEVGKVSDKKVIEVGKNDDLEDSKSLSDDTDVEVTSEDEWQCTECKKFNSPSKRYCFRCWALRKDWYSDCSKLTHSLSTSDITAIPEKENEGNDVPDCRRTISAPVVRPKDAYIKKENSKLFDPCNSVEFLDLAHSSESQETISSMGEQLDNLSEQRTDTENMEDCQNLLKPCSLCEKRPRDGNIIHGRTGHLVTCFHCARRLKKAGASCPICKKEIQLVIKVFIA

[3] = test system: SJSA-1; experiment: Growth inhibitory activity, SJSA-1; details: Homo sapiens, SJSA-1, read-out: GI50 SJSA-1
Experimental: (§2) Growth inhibitory activity was determined for selected pyrroles in a panel of cell lines with defined MDM2, MDMX and p53 status (Table 5).

[4] = Growth inhibitory activity, A2708 (Table S3); format: cell-based; details: read-out: GI50 A2708
Text: (§1) (2 pictures or pasted objects on this page, not shown here)

[5] = test system: A2780-CP70; experiment: Growth inhibitory activity, A2780-CP70 (Table S3); format: cell-based; details: A2780/CP70, read-out: GI50 A2780-CP70
Text: as §1

[6] = test system: HCT116 p53(-/-); experiment: Growth inhibitory activity, HCT116 p53(-/-) (Table S3); format: cell-based; details: Homo sapiens, HCT-116, read-out: GI50 HCT116 p53(-/-)
Text: as §1

[7] = test system: HCT116; experiment: Growth inhibitory activity, HCT116 (Table S3); format: cell-based; details: Homo sapiens, HCT-116, read-out: GI50 HCT116
Text: as §1

[8] = test system: MRK-NU-1; experiment: Growth inhibitory activity, MRK-NU-1; details: Homo sapiens, MRK-nu-1, read-out: GI50 MRK-NU-1
Experimental: as §2

[9] = test system: SN40R2; experiment: Growth inhibitory activity, SN40R2; details: read-out: GI50 SN40R2
Experimental: as §2

[10] = Table 3, n = 3 (b n = 5), read-out: MDM2 IC50
[11] = Table 3, n = 3 (c n = 1), read-out: MDMX IC50

MDM2–p53, sequence (Q00987 whole entry): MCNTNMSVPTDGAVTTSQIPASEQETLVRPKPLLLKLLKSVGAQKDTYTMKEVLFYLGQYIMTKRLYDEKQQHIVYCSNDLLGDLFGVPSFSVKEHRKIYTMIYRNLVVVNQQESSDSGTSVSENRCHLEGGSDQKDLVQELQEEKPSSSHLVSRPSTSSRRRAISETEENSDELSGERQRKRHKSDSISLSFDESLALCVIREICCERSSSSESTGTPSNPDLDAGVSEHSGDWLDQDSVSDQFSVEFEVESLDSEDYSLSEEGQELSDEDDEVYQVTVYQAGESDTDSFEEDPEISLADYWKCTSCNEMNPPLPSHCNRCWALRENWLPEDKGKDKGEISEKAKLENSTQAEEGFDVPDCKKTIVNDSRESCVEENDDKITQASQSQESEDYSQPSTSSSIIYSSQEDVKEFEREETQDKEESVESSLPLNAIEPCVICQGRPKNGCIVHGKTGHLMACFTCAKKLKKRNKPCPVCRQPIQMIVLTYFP

Compound: O=C1NC(=S)NC(=O)C1=Cc1cc(C2CC2)n(-c2ccc(Br)cc2)c1-c1ccccc1 [Compound 11g]
- IC50 ([1]; read-out: MDM2 IC50): 2.2 ± 2.7 µM
- IC50 ([2]; read-out: MDMX IC50): 5320 µM

Compound: Cc1ccc(-n2c(C)cc(/C=C3\C(=O)NC(=S)N(c4ccccc4)C3=O)c2C)cc1 [Compound 4i]
- GI50 [3]: 7.1 ± 0.1 µM
- GI50 [4]: 7.5 ± 0.1 µM
- GI50 [5]: 9 ± 0.4 µM
- GI50 [6]: 9.7 ± 0.2 µM
- GI50 [7]: 9.5 ± 0.3 µM
- IC50 ([1]; read-out: MDM2 IC50): 8.4 ± 0.9 µM

Compound: Cc1cc(C=C2C(=O)NC(=S)NC2=O)c(C)n1-c1ccc(Cl)cc1 [Compound 4a]
- GI50 [3]: 3.3 ± 0.1 µM
- GI50 [4]: 3.4 ± 0.2 µM
- GI50 [5]: 4.4 ± 0.2 µM
- GI50 [6]: 8.3 ± 0.4 µM
- GI50 [7]: 8.4 ± 0.5 µM
- IC50 ([1]; read-out: MDM2 IC50): 0.72 ± 0.1 µM

Compound: O=C1NC(=S)NC(=O)C1=Cc1cc(-c2ccccc2)n(-c2ccc(Br)cc2)c1C1CC1 [Compound 11e]
- IC50 ([1]; read-out: MDM2 IC50): 1.6 ± 1.6 µM
- IC50 ([2]; read-out: MDMX IC50): 3430 µM

Compound: O=C1NC(=O)C(=Cc2cc(-c3ccccc3)n(-c3ccc(Br)cc3)c2-c2ccccc2)C(=O)N1 [Compound 4n]
- IC50 ([1]; read-out: MDM2 IC50): 0.18 ± 0.07 µM

Compound: CN1C(=O)C(=Cc2cc(-c3ccccc3)n(-c3ccc(Cl)cc3)c2-c2ccccc2)C(=O)NC1=S [Compound 4x]
- GI50 [8]: 7 ± 1 µM
- GI50 [3]: 5.5 ± 0.6 µM
- IC50 [1]: 0.11 ± 0.02 µM
- GI50 [9]: 6.3 ± 0.4 µM
- IC50 [2]: 28 ± 23 µM

Compound: CN1C(=O)C(=Cc2cc(-c3ccccc3)n(-c3ccc(Cl)cc3)c2-c2ccccc2)C(=O)N(C)C1=S [Compound 4g]
- MDM2-p53 IC50 [1]: Insol.
- MDM2 IC50 [1]: Insol.

Compound: CCN1C(=O)C(=Cc2cc(-c3ccccc3)n(-c3ccc(Br)cc3)c2-c2ccccc2)C(=O)N(CC)C1=O [Compound 4v]
- fold less potent against MDM2 compared with unsubstituted analogues [1]: 3–4 fold
- IC50 ([1]; read-out: MDM2 IC50): 0.89 ± 0.04 µM
- inhibition at 50 µM ([2]; read-out: MDMX % inhibition at 50 μM): 74%

Compound: Cc1cc(C=C2C(=O)N(c3ccccc3)C(=S)N(c3ccccc3)C2=O)c(C)n1-c1ccc(Br)cc1 [Compound 4h]
- IC50 ([1]; read-out: MDM2 IC50): 0.199 ± 0.016 µM

Compound: CNC(=O)C(=Cc1cc(-c2ccccc2)n(-c2ccc(Cl)cc2)c1-c1ccccc1)C(=O)NC [Compound 10d]
- fold loss of potency against MDM2–p53 [1]: 3 fold
- IC50 [1, 10]: 7.6 ± 0.4 µM
- IC50 [2, 11]: 30 µM

Compound: O=C1NC(=S)NC(=O)C1=Cc1cc(-c2ccccc2)n(-c2ccc([N+](=O)[O-])cc2)c1-c1ccccc1 [Compound 4t]
- GI50 [8]: 4.9 ± 0.6 µM
- GI50 [3]: 4.7 ± 1 µM
- IC50 ([1]; read-out: MDM2 IC50): 0.17 ± 0.09 µM
- GI50 [9]: 5.2 ± 0.4 µM
- IC50 ([2]; read-out: MDMX IC50): 0.63 ± 0.12 µM

Compound: Cc1ccc(-n2c(C)cc(C=C3C(=O)NC(=S)NC3=O)c2C)cc1 [Compound 4j]
- IC50 ([1]; read-out: MDM2 IC50): 4.7 ± 0.2 µM

Compound: O=C1NC(=O)C(=Cc2cc(-c3ccccc3)n(-c3ccc(Cl)cc3)c2-c2ccccc2)C(=O)N1 [Compound 4m]
- IC50 ([1]; read-out: MDM2 IC50): 0.3 ± 0.03 µM

Compound: CCN1C(=O)C(=Cc2cc(-c3ccccc3)n(-c3ccc(Br)cc3)c2-c2ccccc2)C(=O)N(CC)C1=S [Compound 4w]
- IC50 ([1]; read-out: MDM2 IC50): 0.26 ± 0.05 µM

Compound: CN1C(=O)NC(=O)C(=Cc2cc(-c3ccccc3)n(-c3ccc(Br)cc3)c2-c2ccccc2)C1=O [Compound 4y]
- IC50 [1]: 0.34 ± 0.08 µM
- IC50 [2]: 35 ± 20 µM

Compound: N#Cc1ccc(-n2c(-c3ccccc3)cc(C=C3C(=O)NC(=S)NC3=O)c2-c2ccccc2)cc1 [Compound 4r]
- GI50 [8]: 6.1 ± 0.7 µM
- GI50 [3]: 5.1 ± 0.9 µM
- IC50 ([1]; read-out: MDM2 IC50): 0.2 ± 0.07 µM
- GI50 [9]: 5.9 ± 0.3 µM
- IC50 ([2]; read-out: MDMX IC50): 0.9 ± 0.42 µM

Compound: CC1(C)OC(=O)C(Cc2cc(-c3ccccc3)n(-c3ccc(Br)cc3)c2-c2ccccc2)C(=O)O1 [Compound 9]
- fold less potent than 8c against MDM2–p53 [1]: 20 fold
- IC50 [1, 10]: 2.9 ± 0.7 µM

Compound: CC(C)(C)c1cc(C=C2C(=O)NC(=S)NC2=O)c(-c2ccccc2)n1-c1ccc(Cl)cc1 [Compound 11c]
- IC50 ([1]; read-out: MDM2 IC50): 1.1 ± 0.7 µM
- fold loss of potency for MDMX [2]: > 200 fold
- IC50 ([2]; read-out: MDMX IC50): 1680 µM

Compound: Cc1ccc(N2C(=O)/C(=C\c3cc(-c4ccccc4)n(-c4ccc(Cl)cc4)c3-c3ccccc3)C(=O)N(c3ccccc3)C2=S)cc1C [Compound 4f]
- IC50 ([1]; read-out: MDM2-p53 IC50): 0.26 ± 0.04 µM
- IC50 ([1]; read-out: MDM2 IC50): 0.256 ± 0.039 µM

Compound: NC(=O)C(=Cc1cc(-c2ccccc2)n(-c2ccc(Cl)cc2)c1-c1ccccc1)C(N)=O [Compound 10c]
- IC50 [1, 10]: 2.5 ± 0.2 µM
- IC50 [2, 11]: 30 µM

Compound: CC1(C)OC(=O)C(=Cc2cc(-c3ccccc3)n(-c3ccc(Br)cc3)c2-c2ccccc2)C(=O)O1 [Compound 7]
- fold less potent than 8c against MDM2–p53 [1]: > 100 fold
- IC50 [1, 10]: 17 ± 4 µM

Compound: Cc1cc(/C=C2\C(=O)NC(=S)N(c3ccccc3)C2=O)c(C)n1-c1ccc(Cl)cc1 [Compound 4b]
- GI50 [3]: 7.6 ± 0.1 µM
- GI50 [4]: 8.4 ± 0.2 µM
- GI50 [5]: 9.5 ± 0.1 µM
- GI50 [6]: 9.9 ± 0.1 µM
- GI50 [7]: 9.5 ± 0.3 µM
- IC50 ([1]; read-out: MDM2 IC50): 3.3 ± 0.7 µM

Compound: O=C(O)C(=Cc1cc(-c2ccccc2)n(-c2ccc(Cl)cc2)c1-c1ccccc1)C(=O)O [Compound 10b]
- activity against MDM2–p53 in words [1]: modest activity
- IC50 [1, 10]: 2.9 ± 0.2 µM
- IC50 [2, 11]: > 50 µM

Compound: COC(=O)C(=Cc1cc(-c2ccccc2)n(-c2ccc(Cl)cc2)c1-c1ccccc1)C(=O)OC [Compound 10a]
- activity against MDM2–p53 in words [1]: essentially inactive
- IC50 [1, 10]: > 50 µM
- IC50 [2, 11]: > 50 µM

Compound: CC(C)(C)c1cc(C=C2C(=O)NC(=S)NC2=O)c(-c2ccccc2)n1-c1ccc(Br)cc1 [Compound 11b]
- IC50 ([1]; read-out: MDM2 IC50): 0.76 ± 0.27 µM
- fold loss of potency for MDMX [2]: > 200 fold
- IC50 ([2]; read-out: MDMX IC50): 963 µM

Compound: N#Cc1ccc(-n2c(-c3ccccc3)cc(C=C3C(=O)NC(=O)NC3=O)c2-c2ccccc2)cc1 [Compound 4q]
- IC50 ([1]; read-out: MDM2 IC50): 4.7 ± 1.9 µM
- IC50 ([2]; read-out: MDMX IC50): 7 ± 3 µM

Compound: COc1ccc(-n2c(-c3ccccc3)cc(C=C3C(=O)NC(=O)NC3=O)c2-c2ccccc2)cc1 [Compound 4o]
- IC50 ([1]; read-out: MDM2 IC50): 1.9 ± 0.3 µM
- IC50 ([2]; read-out: MDMX IC50): 13 ± 7 µM

Compound: CCOC(=O)c1ccc(-n2c(-c3ccccc3)cc(C=C3C(=O)NC(=S)NC3=O)c2-c2ccccc2)cc1 [Compound 4k]
- IC50 ([1]; read-out: MDM2 IC50): 0.7 ± 0.02 µM

Compound: O=C1NC(=S)NC(=O)C1=Cc1cc(C2CC2)n(-c2ccc(Cl)cc2)c1-c1ccccc1 [Compound 11f]
- IC50 ([1]; read-out: MDM2 IC50): 2.1 ± 2.7 µM
- IC50 ([2]; read-out: MDMX IC50): 4920 µM

Compound: O=C(O)/C=C/c1cc(-c2ccccc2)n(-c2ccc(Cl)cc2)c1-c1ccccc1 [Compound 10f]
- activity against MDM2–p53 in words [1]: only weakly active
- IC50 [1, 10]: 17 ± 3 µM
- activity against MDMX–p53 in words [2]: inactive
- IC50 [2, 11]: > 50 µM

Compound: CCN1C(=O)C(=Cc2cc(-c3ccccc3)n(-c3ccc(Cl)cc3)c2-c2ccccc2)C(=O)N(CC)C1=S [Compound 4u]
- fold less potent against MDM2 compared with unsubstituted analogues [1]: 3–4 fold
- IC50 ([1]; read-out: MDM2 IC50): 0.3 ± 0.12 µM

Compound: CN1C(=O)C(=Cc2cc(-c3ccccc3)n(-c3ccc(Br)cc3)c2-c2ccccc2)C(=O)NC1=S [Compound 4z]
- IC50 [1]: 0.073 ± 0.002 µM

Compound: O=C(NCCO)C(=Cc1cc(-c2ccccc2)n(-c2ccc(Cl)cc2)c1-c1ccccc1)C(=O)NCCO [Compound 10e]
- fold loss of potency against MDM2–p53 [1]: 6 fold
- IC50 [1, 10]: 15 ± 3 µM
- IC50 [2, 11]: 42 µM

Compound: O=C1NC(=S)N(c2cccc(Cl)c2)C(=O)/C1=C/c1cc(-c2ccccc2)n(-c2ccc(Cl)cc2)c1-c1ccccc1 [Compound 4e]
- IC50 ([1]; read-out: MDM2 IC50): 0.163 ± 0.017 µM

Compound: CC(C)(C)c1ccc(-n2c(-c3ccccc3)cc(C=C3C(=O)NC(=O)NC3=O)c2-c2ccccc2)cc1 [Compound 4p]
- IC50 ([1]; read-out: MDM2 IC50): 1.9 ± 0.3 µM

Compound: O=C1NC(=O)C(=Cc2cc(-c3ccccc3)n(-c3ccc([N+](=O)[O-])cc3)c2-c2ccccc2)C(=O)N1 [Compound 4s, 5-((1-(4-nitrophenyl)-2,5-diphenyl-1H-pyrrol-3-yl)methylene)pyrimidine-2,4,6(1H,3H,5H)-trione]
- IC50 ([1]; read-out: MDM2 IC50): 0.15 ± 0.06 µM
- IC50 ([2]; read-out: MDMX IC50): 0.68 ± 0.18 µM

Compound: O=C1NC(=S)NC(=O)C1=Cc1cc(-c2ccccc2)n(-c2ccc(Cl)cc2)c1C1CC1 [Compound 11d]
- IC50 ([1]; read-out: MDM2 IC50): 1.6 ± 1.7 µM
- IC50 ([2]; read-out: MDMX IC50): 3490 µM
